Test results: PubChem BioAssay AID328 (DTP/NCI, 2004)
Values joined by “and” are separate entries in the source; they are usually repeats but may differ in a detail not shown here. Equal values may be shown once. Inconclusive results and toxic doses are left out.

Tested on: BDF1 mice, P388 leukemia ip, median survival T/C
Assay: NCI In Vivo Anticancer Drug Screen. Data for tumor model P388 Leukemia (intraperitoneal) in B6D2F1 (BDF1) mice
Conditions: endpoint: median survival time, higher = longer survival
In short: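 Survival ratio, drug arm over vehicle arm, in mice with a transplanted tumour.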

[1] = dose: 12.5 mg/kg/injection, schedule: Q01DX009 (ip), vehicle: water
[2] = dose: 25.0 mg/kg/injection, schedule: Q01DX009 (ip), vehicle: water
[3] = dose: 50.0 mg/kg/injection, schedule: Q01DX009 (ip), vehicle: water
[4] = dose: 100.0 mg/kg/injection, schedule: Q01DX009 (ip), vehicle: water
[5] = dose: 200.0 mg/kg/injection, schedule: Q01DX009 (ip), vehicle: water
[6] = dose: 6.25 mg/kg/injection, schedule: Q01DX009 (ip), vehicle: water
[7] = dose: 100.0 mg/kg/injection, schedule: Q04DX003 (ip), vehicle: water
[8] = dose: 50.0 mg/kg/injection, schedule: Q01DX009 (ip), vehicle: saline with Tween-80
[9] = dose: 100.0 mg/kg/injection, schedule: Q01DX009 (ip), vehicle: saline with Tween-80
[10] = dose: 200.0 mg/kg/injection, schedule: Q01DX009 (ip), vehicle: saline with Tween-80
[11] = dose: 200.0 mg/kg/injection, schedule: Q04DX003 (ip), vehicle: saline with Tween-80
[12] = dose: 100.0 mg/kg/injection, schedule: Q04DX003 (ip), vehicle: saline with Tween-80
[13] = dose: 400.0 mg/kg/injection, schedule: Q04DX003 (ip), vehicle: saline with Tween-80
[14] = dose: 12.5 mg/kg/injection, schedule: Q01DX009 (ip), vehicle: saline with Tween-80
[15] = dose: 25.0 mg/kg/injection, schedule: Q01DX009 (ip), vehicle: saline with Tween-80
[16] = dose: 100.0 mg/kg/injection, schedule: Q04DX003 (ip), vehicle: Klucel (hydroxypropylcellulose) (HPC)
[17] = dose: 200.0 mg/kg/injection, schedule: Q04DX003 (ip), vehicle: Klucel (hydroxypropylcellulose) (HPC)

For `COC(=O)C(CO)NC(=O)OCc1ccccc1` (stereo not given), the T/C [1] was 100 % of control, the T/C [2] was 100 % of control and the T/C [3] was 96 % of control. The T/C [4] was 96 % of control and the T/C [5] was 100 % of control.

With `CCN(CC)Cc1c(C)[nH]c2c(OC)cccc2c1=O` the T/C [6] was 97 % of control, the T/C (dose: 6.25 mg/kg/injection, schedule: Q04DX003 (ip), vehicle: water) was 98 % of control and the T/C [1] was 99 % of control. For the same molecule, the T/C (dose: 12.5 mg/kg/injection, schedule: Q04DX003 (ip), vehicle: water) was 91 % of control, the T/C [2] was 106 % of control and the T/C (dose: 25.0 mg/kg/injection, schedule: Q04DX003 (ip), vehicle: water) was 105 % of control. For the same molecule, the T/C [3] was 97 % of control, the T/C (dose: 50.0 mg/kg/injection, schedule: Q04DX003 (ip), vehicle: water) was 100 % of control and the T/C [4] was 108 % of control. The T/C [7] was 105 % of control.

In the case of `COc1ccc(CN)cc1OC`, the T/C [8] is reported as 100 % of control, the T/C [9] is reported as 91 % of control and the T/C [10] is reported as 97 % of control.

With `C1CC2CCC[N]3C2C(C1)[O][Pb]31[O]C2CCCC3CCC[N]1C32` (stereo not given) the T/C (dose: 133.0 mg/kg/injection, schedule: Q04DX003 (ip), vehicle: saline with Tween-80) was 96 % of control and 100 % of control, the T/C [11] was 100 % of control and 104 % of control and the T/C (dose: 300.0 mg/kg/injection, schedule: Q04DX003 (ip), vehicle: saline with Tween-80) was 95 % of control and 104 % of control.

In the case of `Cc1nc(N)c([N+](=O)[O-])cc1[N+](=O)[O-]`, the T/C (dose: 100.0 mg/kg/injection, schedule: Q01DX001 (ip), vehicle: Klucel (hydroxypropylcellulose) (HPC)) is reported as 87 % of control.

With `CCc1c(C(OC)OC)[nH]c(=S)[nH]c1=O` the T/C [12] was 91 % of control, the T/C [11] was 91 % of control and the T/C [13] was 87 % of control.

For `C=CC(=O)NC1CCCCC1`, the T/C (dose: 50.0 mg/kg/injection, schedule: Q04DX003 (ip), vehicle: Klucel (hydroxypropylcellulose) (HPC)) was 90 % of control, the T/C (dose: 75.0 mg/kg/injection, schedule: Q04DX003 (ip), vehicle: Klucel (hydroxypropylcellulose) (HPC)) was 104 % of control and the T/C (dose: 150.0 mg/kg/injection, schedule: Q04DX003 (ip), vehicle: Klucel (hydroxypropylcellulose) (HPC)) was 104 % of control.

In the case of `O=C(Nc1cccc2ccccc12)C(F)(F)F`, the T/C [14] is reported as 109 % of control, the T/C [15] is reported as 104 % of control and the T/C (dose: 25.0 mg/kg/injection, schedule: Q04DX003 (ip), vehicle: saline with Tween-80) is reported as 91 % of control. The T/C [8] was 100 % of control, the T/C (dose: 50.0 mg/kg/injection, schedule: Q04DX003 (ip), vehicle: saline with Tween-80) was 99 % of control and the T/C [9] was 118 % of control. For the same molecule, the T/C [12] was 90 % of control and 103 % of control.

`CN(C)CCCN1c2ccccc2Sc2ccc(F)cc21` was tested, and the T/C (dose: 6.25 mg/kg/injection, schedule: Q01DX009 (ip), vehicle: saline) was 104 % of control, the T/C (dose: 12.5 mg/kg/injection, schedule: Q01DX009 (ip), vehicle: saline) was 109 % of control and the T/C (dose: 25.0 mg/kg/injection, schedule: Q01DX009 (ip), vehicle: saline) was 122 % of control. The T/C (dose: 25.0 mg/kg/injection, schedule: Q04DX003 (ip), vehicle: saline) was 104 % of control and the T/C (dose: 50.0 mg/kg/injection, schedule: Q04DX003 (ip), vehicle: saline) was 118 % of control.

In the case of `Cn1nc(-c2ccccc2)nc1[N+](=O)[O-]`, the T/C [14] is reported as 114 % of control, the T/C [15] is reported as 97 % of control and the T/C [8] is reported as 93 % of control. The T/C [9] was 99 % of control.

For `C/C=C(\C)C(=O)OC1C(C)C2(O)C(C=C(CO)CC3(O)C(=O)C(C)=CC32)C2C(C)(C)C12OC(=O)CCCCCCCCC` (stereo not given), the T/C (dose: 0.01 mg/kg/injection, schedule: Q01DX009 (ip), vehicle: gum acacia) was 98 % of control, the T/C (dose: 0.01 mg/kg/injection, schedule: Q01DX009 (ip), vehicle: saline + alcohol) was 90 % of control and the T/C (dose: 0.01 mg/kg/injection, schedule: Q01DX009 (ip), vehicle: saline with Tween-80) was 118 % of control. For the same molecule, the T/C (dose: 0.02 mg/kg/injection, schedule: Q01DX009 (ip), vehicle: gum acacia) was 93 % of control, the T/C (dose: 0.03 mg/kg/injection, schedule: Q01DX009 (ip), vehicle: Klucel (hydroxypropylcellulose) (HPC)) was 110 % of control and the T/C (dose: 0.03 mg/kg/injection, schedule: Q01DX009 (ip), vehicle: gum acacia) was 111 % of control. The T/C (dose: 0.03 mg/kg/injection, schedule: Q01DX009 (ip), vehicle: saline + alcohol) was 93 % of control and 108 % of control, the T/C (dose: 0.06 mg/kg/injection, schedule: Q01DX009 (ip), vehicle: Klucel (hydroxypropylcellulose) (HPC)) was 112 % of control and the T/C (dose: 0.06 mg/kg/injection, schedule: Q01DX009 (ip), vehicle: saline + alcohol) was 90 % of control and 108 % of control. The T/C (dose: 0.12 mg/kg/injection, schedule: Q01DX009 (ip), vehicle: Klucel (hydroxypropylcellulose) (HPC)) was 112 % of control, the T/C (dose: 0.25 mg/kg/injection, schedule: Q01DX009 (ip), vehicle: Klucel (hydroxypropylcellulose) (HPC)) was 112 % of control and the T/C (dose: 0.25 mg/kg/injection, schedule: Q01DX009 (ip), vehicle: saline + alcohol) was 163 % of control. The T/C (dose: 0.5 mg/kg/injection, schedule: Q01DX009 (ip), vehicle: Klucel (hydroxypropylcellulose) (HPC)) was 119 % of control and the T/C (dose: 1.0 mg/kg/injection, schedule: Q01DX009 (ip), vehicle: Klucel (hydroxypropylcellulose) (HPC)) was 91 % of control.

For `C[C@]12CC[C@H](O)C[C@@H]1CC[C@@H]1[C@@H]2C(=O)C[C@@]2(C)[C@H]1CC[C@]2(O)C(=O)CBr`, the T/C [14] was 114 % of control, the T/C (dose: 50.0 mg/kg/injection, schedule: Q01DX009 (ip), vehicle: Klucel (hydroxypropylcellulose) (HPC)) was 113 % of control and the T/C (dose: 100.0 mg/kg/injection, schedule: Q01DX009 (ip), vehicle: Klucel (hydroxypropylcellulose) (HPC)) was 109 % of control. For the same molecule, the T/C [16] was 100 % of control, the T/C [10] was 118 % of control and the T/C [17] was 109 % of control. The T/C (dose: 400.0 mg/kg/injection, schedule: Q04DX003 (ip), vehicle: Klucel (hydroxypropylcellulose) (HPC)) was 113 % of control.

In the case of `O=C(O)c1ccc(CCCC2CCCC2)cc1`, the T/C [16] is reported as 109 % of control and the T/C [17] is reported as 100 % of control.

With `ClCCN(CCCl)CCCN1c2ccccc2Sc2ccc(Cl)cc21` the T/C (dose: 3.12 mg/kg/injection, schedule: Q04DX003 (ip), vehicle: saline) was 97 % of control, the T/C (dose: 6.25 mg/kg/injection, schedule: Q04DX003 (ip), vehicle: saline with Tween-80) was 154 % of control and the T/C (dose: 6.25 mg/kg/injection, schedule: Q04DX003 (ip), vehicle: saline) was 97 % of control. The T/C (dose: 12.5 mg/kg/injection, schedule: Q04DX003 (ip), vehicle: saline) was 94 % of control.

In the case of `CC(=O)n1ncc2ccc([N+](=O)[O-])cc21`, the T/C [6] is reported as 103 % of control, the T/C [1] is reported as 97 % of control and 111 % of control and the T/C [2] is reported as 94 % of control (2×) and 108 % of control. The T/C [3] was 94 % of control and 99 % of control, the T/C [4] was 94 % of control and 97 % of control and 105 % of control and the T/C [7] was 111 % of control. For the same molecule, the T/C [5] was 100 % of control, the T/C (dose: 200.0 mg/kg/injection, schedule: Q04DX003 (ip), vehicle: water) was 106 % of control and the T/C (dose: 400.0 mg/kg/injection, schedule: Q01DX009 (ip), vehicle: water) was 96 % of control. For the same molecule, the T/C (dose: 400.0 mg/kg/injection, schedule: Q04DX003 (ip), vehicle: water) was 98 % of control.

`CCCCCCC(N)C(C)=O` (stereo not given) was tested, and the T/C (dose: 50.0 mg/kg/injection, schedule: Q01DX009 (ip), vehicle: saline) was 93 % of control and the T/C (dose: 100.0 mg/kg/injection, schedule: Q01DX009 (ip), vehicle: saline) was 95 % of control.

In the case of `CCOC(=O)CCC1(CCC(=O)OCC)OCCO1`, the T/C [9] is reported as 91 % of control, the T/C (dose: 100.0 mg/kg/injection, schedule: Q04DX003 (ip), vehicle: saline) is reported as 95 % of control and the T/C [10] is reported as 95 % of control. For the same molecule, the T/C (dose: 200.0 mg/kg/injection, schedule: Q04DX003 (ip), vehicle: saline) was 109 % of control, the T/C (dose: 400.0 mg/kg/injection, schedule: Q01DX009 (ip), vehicle: saline with Tween-80) was 108 % of control and the T/C (dose: 400.0 mg/kg/injection, schedule: Q04DX003 (ip), vehicle: saline) was 109 % of control.

In the case of `NC(=S)N/N=C\c1nccc2c(C(F)(F)C(F)(F)C(F)(F)F)cccc12`, the T/C [12] is reported as 110 % of control, the T/C [11] is reported as 98 % of control and the T/C [13] is reported as 88 % of control.

`COc1cc2c(=O)n(C)c3c4cc5c(cc4ccc3c2cc1OC)OCO5` was tested, and the T/C (dose: 1.0 mg/kg/injection, schedule: Q01DX010 (ip), vehicle: steriod suspending solution) was 103 % of control, the T/C (dose: 3.0 mg/kg/injection, schedule: Q01DX010 (ip), vehicle: steriod suspending solution) was 117 % of control and the T/C (dose: 6.0 mg/kg/injection, schedule: Q01DX010 (ip), vehicle: steriod suspending solution) was 110 % of control.
